Assays:
[1] = system: primary human macrophages; experiment: Cytokine/chemokine production by primary human macrophages; type: cell-based; conditions: for production of IL-6, TNF-α, RANTES, and MCP-1: pre-incubation 3 hours with antibody, 24 hours
Protocol: Primary human macrophages were generated from long-term cultures of freshly isolated human peripheral blood mononuclear cells (PBMCs; AllCells, Emeryville, Calif. or LifeBlood, Memphis, Tenn.). PBMCs were cultured in tissue culture flasks in RPMI 1640 medium containing glutamine (Invitrogen, Grand Island, N.Y.), 10% heat-inactivated FBS, and antibiotics for 3 to 4 hours. Non-adherent cells were removed by washing with PBS and the adherent cells were cultured in OptiMem-1 medium (Invitrogen) containing 1% heat-inactivated FBS for 1 to 2 hours. The cells were washed with PBS and cultured for 10 to 14 days in X-VIVO-15 medium (Cambrex Bio Science, Walkersville, Md.) containing 500 U/ml GM-CSF (Peprotech, Rocky Hill, N.J.). […]

[2] = biological target: CD33 (Homo sapiens, UniProt P20138); experiment: CD33 tyrosine phosphorylation in CD33-positive AML lines (CD33 immunoprecipitation, anti-phosphotyrosine Western blot); type: cell-based; design: endogenous in cells; host or cells: HL-60 (ATCC); primary human CD14+ monocytes (Cambrex); macrophages derived from human PBMCs
Chain of CD33 (P20138 18-364): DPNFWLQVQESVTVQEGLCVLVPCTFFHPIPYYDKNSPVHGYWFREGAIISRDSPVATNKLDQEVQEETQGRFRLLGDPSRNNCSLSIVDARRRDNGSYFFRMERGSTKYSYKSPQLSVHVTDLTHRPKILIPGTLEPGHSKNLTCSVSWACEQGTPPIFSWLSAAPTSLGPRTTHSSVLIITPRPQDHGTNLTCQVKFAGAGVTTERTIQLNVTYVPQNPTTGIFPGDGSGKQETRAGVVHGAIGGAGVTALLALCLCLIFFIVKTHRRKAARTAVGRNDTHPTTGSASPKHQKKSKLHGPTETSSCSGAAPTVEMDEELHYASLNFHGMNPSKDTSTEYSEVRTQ
Protocol: CD33-positive cell lines were treated with anti-CD33 antibodies (lintuzumab and certain commercially available antibodies). Cell extracts were prepared and CD33 was immunoprecipitated using an anti-CD33 antibody (MY9 clone; Beckman Coulter, Calif.). Western blotting was performed with an anti-phosphotyrosine antibody (4G10; Upstate Biotechnologies, Inc., Lake Placid, N.Y.). […] Two forms of CD33 were detected (due to either splicing of CD33 mRNA or post-translational modification of CD33).

**Q.** How did the “levels of IL-6, TNF-α, MCP-1, and RANTES” value ([1]; macrophages treated 1 h prior to IFN-γ, LPS, or TGF-β, supernatants 18 h later, FIG. 18) turn out when “SGN-33: anti-CD33 antibody, a humanized version of mouse monoclonal antibody M195” was run?
**A.** significantly reduced

**Q.** And the “production of IL-6, TNF-α, RANTES, and MCP-1” value ([1]; in response to IFN-γ, FIG. 6)?
**A.** reduced production

**Q.** What about the “production of IL-6, TNF-α, RANTES, and MCP-1” value ([1]; in response to conditioned media from RPMI-8226 and Karpus-620 cells, FIG. 7) of the same substance?
**A.** reduced production

**Q.** What about the “levels of TNF-α” value ([1]; primary human macrophages, various doses of SGN-33, 1 hr prior to IFN-γ, 18 h, p<0.05, FIG. 20) of the same substance?
**A.** significantly reduced levels of TNF-α in a dose-dependent manner

**Q.** What about the “CD33 tyrosine phosphorylation, soluble versus cross-linked antibody” value ([2]; HL-60 and U937 cells, FIG. 2) of the same substance?
**A.** more effective than cross-linked antibody

**Q.** And the CD33 tyrosine phosphorylation ([2]; HL-60 and U937 cells, soluble or cross-linked antibody, compared with control human IgG1, FIG. 2)?
**A.** stimulated CD33 tyrosine phosphorylation

**Q.** And the CD33 tyrosine phosphorylation ([2]; HL-60 cells, both soluble and cross-linked antibody, FIG. 1)?
**A.** stimulated CD33 tyrosine phosphorylation

From patent US20110038856A1, “METHODS OF TREATING NEOPLASTIC, AUTOIMMUNE AND INFLAMMATORY DISEASES” (Seattle Genetics, Inc., priority 2006, published 2011)
